For one data set, the system named is PDE4. The procedure:
HEK293 cell culture and transfection: HEK293 cells were cultured in DMEM (Gibco life technologies) containing 10% FBS, 100 units/ml penicillin-streptomycin, and 2 mM L-glutamine. Cell transfections were performed with the PIE Transfection reagent (Qiagen) according to manufacturer's instructions.
Forster Resonance Energy Transfer (FRET):Measurements to track PKA activity. […] Images were acquired using a Zeiss AXIO inverted fluorescence microscope (Carl Zeiss micrscopy, LLC, Thomwood, N.Y.) with a 40× oil-emersion objective lens and a charge-coupled device camera controlled by Metafluor software (Molecular Devices, Sunnyvale, Calif.). […] Images were subjected to background subtraction, and were acquired every 30 seconds with exposure time of 200 ms. The donor/acceptor FRET ratio was calculated and normalized to the ratio value of baseline.
Statistics: Statistical analysis was performed using GraphPad Prism 6 software (La Jolla, Calif.). Results are shown as mean±SEM and were analyzed by one way ANOVA with post hoc Bonferroni's multiple compression test.

Data set [1] has as its system inflammatory pain (rat TWL-LPS model). The note with it: for TWL threshold time course (analgesic effect): over 4 h. Here is the method:
Control animals received a 50 μl saline intraplantar sham injection in the right back paw.
Student t-test was performed in Microsoft Excel with a significance of P<0.05. Results are shown as mean±SD.

A further data set can be described thus: in vivo. The note with it: rat. Here is the method: All the animal experiments were performed according to the protocols approved by the Animal Use and Care Committee of University of California-Davis. Male Sprague-Dawley rats (n=4, 8 week old, 250-300 g) were used in the pharmacokinetic study of sEH/PDE4 dual inhibitors. […] Inhibitor was dissolved in 100% polyethylene glycol 300 to form a clear solution. […] Each blood sample was immediately transferred to a tube containing […] of water and mixed by Vortex for 1 min, all samples were stored at −80° C. until analysis.

For data set [2] the following is noted: over the following days post treatment.
[3] abbreviates: rat TWL-LPS model, 1 mg/kg oral, 0.5 h.
The mark [4] stands for this setting: rat TWL-LPS model, 3 mg/kg oral, 0.5 h.
Setting [5] is: male, Sprague-Dawley, in vivo, 0.3 mg/kg.
[6] abbreviates: male, Sprague-Dawley, po, 3 mg/kg.
Where [7] appears, read: male, Sprague-Dawley, po, 30 mg/kg.
Where [8] appears, read: male, Sprague-Dawley, po, 100 mg/kg.

Experimental findings from patent US11572347B2 (priority 2017, dated 2023) are described below.

Where two headings read alike, the source gives them in different places.

`CCN1CCC(C(=O)NCc2ccc(OC)cc2C(F)(F)F)CC1` [Compound 26, 1-ethyl-N-(4-methoxy-2-(trifluoromethyl)benzyl)piperidine-4-carboxamide] yielded a Percentage change in the data set on PDE4 of 62%.

With TPPU [reference compound], in data set [1] (setting [3]), the “TWL threshold at 0.5 h (pain relief vs LPS control)” value is given as “do not result in an equal analgesic effect”. Also, the “TWL threshold at 0.5 h (pain relief vs LPS control)” value in data set [1] (setting [4]) is reported as “significant pain relief”. Besides, in the data set on PDE4, the “% cAMP increase rel. to Rolipram @ 1 μM” value is on record as 40 ± 10%, the Percentage change is on record as 37% and the “mean FRET ratio change” value came to 1.015.

As to `COc1ccc(CNC(=O)C2CCN(C(=O)C3CC3)CC2)c(C(F)(F)F)c1` [Compound 28, 1-(cyclopropanecarbonyl)-N-(4-methoxy-2-(trifluoromethyl)benzyl)piperidine-4-carboxamide], in the data set with PDE4, the “% cAMP increase rel. to Rolipram @ 1 μM” value was found to be 230 ± 15%.

Turning to `COc1ccc(CNC(=O)C2CCNCC2)c(C(F)(F)F)c1` [Compound 22, N-(4-Methoxy-2-(trifluoromethyl)benzyl)piperidine-4-carboxamide], in the data set on PDE4, the “% cAMP increase rel. to Rolipram @ 1 μM” value is given as “higher cAMP increase than Rolipram” and the Percentage change came out at 138%.

Consider `CCC(=O)N1CCC(C(=O)NCc2ccc(OC)cc2C(F)(F)F)CC1` [Compound 23/RBH61, N-(4-methoxy-2-(trifluoromethyl)benzyl)-1-propionylpiperidine-4-carboxamide], for which the “TWL threshold in naïve animals (analgesic effect)” value in data set [1] (naïve rats, no LPS) is “no analgesic effect”. Further, the “TWL threshold at 0.5 h (pain relief vs LPS control)” value in data set [1] (setting [3]) was “significant pain relief”. The “TWL threshold time course (analgesic effect)” value in data set [1] (rat TWL-LPS model, 1 mg/kg oral) is on record as “pain relief”. The “TWL threshold at 0.5 h (pain relief vs LPS control)” value in data set [1] (setting [4]) is on record as “significant pain relief”. In addition, the “TWL threshold time course (analgesic effect)” value in data set [1] (rat TWL-LPS model, 3 mg/kg oral) was “pain relief”. In data set [1] (rat TWL-LPS model, 3 mg/kg, 0.5 h), the “analgesic effect compared to single target treatments and their combination” value is “significantly higher”. In addition, in “in vivo” (setting [5]), the concentration at 0 h was 0 nM, the concentration at 1 h is 40 ± 12 nM, the concentration at 2 h is 25 ± 6 nM and the concentration at 8 h was found to be 0 nM. Also, in “in vivo” (setting [5]), the concentration at 12 h is 0 nM, the concentration at 24 h turned out to be 0 nM and the concentration at 48 h worked out at 0 nM. In the data set “in vivo” (setting [6]), this compound had a concentration at 0 h of 0 nM, a concentration at 1 h of 400 ± 15 nM, a concentration at 2 h of 120 ± 7 nM and a concentration at 4 h of 0 nM. For the same compound, in “in vivo” (setting [6]), the concentration at 8 h is 0 nM, the concentration at 12 h came to 0 nM, the concentration at 24 h turned out to be 0 nM and the concentration at 48 h worked out at 0 nM. For the same compound, the “time until compound is cleared from the blood” value in “in vivo” (setting [6]) came to 4 h. In the data set “in vivo” (setting [7]), this compound showed a concentration at 0 h of 0 nM, a concentration at 1 h of 805 nM, a concentration at 2 h of 527 nM and a concentration at 8 h of 29 nM. In the data set “in vivo” (setting [7]), this compound returned a concentration at 12 h of 0 nM, a concentration at 24 h of 0 nM and a concentration at 48 h of 0 nM. Also, in the data set “in vivo” (setting [8]), the concentration at 0 h amounted to 0 nM, the concentration at 1 h was determined as 1380 nM, the concentration at 2 h was determined as 923 nM and the concentration at 4 h turned out to be 477 nM. In the data set “in vivo” (setting [8]), this compound had a concentration at 8 h of 254 nM, a concentration at 12 h of 0 nM, a concentration at 24 h of 0 nM and a concentration at 48 h of 0 nM. In the data set “in vivo” (cassette 0.3 mg/kg PO), the “bioavailability among the cassette compounds” value was “best bioavailability” and the “time after which compound is cleared from plasma” value is recorded as 4 h. Also, in data set [2], the urine excretion entry is listed as “increase in urine excretion”.

In “in vivo” (setting [5]), `COc1ccc(CNC(=O)c2cccc(OC3CCCC3)c2)c(C(F)(F)F)c1` [Compound 19, 3-(Cyclopentyloxy)-N-(4-methoxy-2-(trifluoromethyl)benzyl)benzamide] had a concentration at 0 h of 0 nM, a concentration at 0.5 h of 4 ± 1.3 nM, a concentration at 1 h of 2 ± 0.3 nM and a concentration at 2 h of 2 ± 0.3 nM. Moreover, in the data set “in vivo” (setting [5]), the concentration at 4 h came out at 2 ± 0.2 nM, the concentration at 8 h stood at 1 ± 0.1 nM, the concentration at 12 h stood at 1 ± 0.2 nM and the concentration at 24 h amounted to 0.3 ± 0.01 nM. For the same compound, the concentration at 48 h in the data set “in vivo” (setting [5]) turned out to be 0 nM. The “plasma concentration reached (in words)” value in “in vivo” (cassette 0.3 mg/kg PO) is reported as “one digit nM”. The compound also yielded a Percentage change with PDE4 of 147%.

In the case of `COc1ccc(C2CNC(=O)C2)cc1OC1CCCC1` (stereo not drawn) [Rolipram, reference compound], in the data set on PDE4, the Percentage change worked out at […]. For the same compound, in the data set on PDE4 (read-out: IC50(PDE4)), the IC50 turned out to be […].

In turn, `CCCC(=O)N1CCC(C(=O)NCc2ccc(OC)cc2C(F)(F)F)CC1` [Compound 24, 1-Butyryl-N-(4-methoxy-2-(trifluoromethyl)benzyl)piperidine-4-carboxamide] displayed a Percentage change with PDE4 of 110%.

In “in vivo” (setting [5]), `COc1ccc(CNC(=O)c2ccc(OC)c(OC3CCCC3)c2)c(C(F)(F)F)c1` [Compound 1, 3-(cyclopentyloxy)-4-methoxy-N-(4-methoxy-2-(trifluoromethyl)benzyl)benzamide] gave a concentration at 0 h of 0 nM, a concentration at 1 h of 0 nM, a concentration at 2 h of 0 nM and a concentration at 4 h of 0 nM. In “in vivo” (setting [5]), this compound came in with a concentration at 8 h of 0 nM, a concentration at 12 h of 0 nM, a concentration at 24 h of 0 nM and a concentration at 48 h of 0 nM. This compound also gave a Percentage change in the data set on PDE4 of 240%.
